The values below come from patent US11254686B1 (Corvus Pharmaceuticals, Inc., priority 2017, dated 2022).

What all share (assay type): biochemical
In experiment [1] the target is adenosine A3 receptor (Homo sapiens (Human), UniProt P0DMS8). Kind of experiment: Adenosine receptor activity assay (Table 1), A3 cAMP.
For experiment [2], the target named is adenosine A2B receptor (Homo sapiens (Human), UniProt P29275). The experiment is described as follows: Adenosine receptor activity assay (Table 1), A2B activity. The settings on record: for Ratio: A2A activity to the A2B activity, A2A/A2B; for IC50: cAMP, read-out: Ave A2B cAMP IC50.
Experiment [3] has as its target adenosine A2A receptor (Homo sapiens (Human), UniProt P29274). The experiment is described as follows: Adenosine receptor activity assay (Table 1), A2A activity. The settings on record: cAMP; read-out: Ave A2A cAMP IC50.
In experiment [4] the target is adenosine A1 receptor (Homo sapiens (Human), UniProt P30542). Kind of experiment: Adenosine receptor activity assay (Table 1), A1 cAMP.
adenosine A1 receptor, sequence (P30542 whole entry): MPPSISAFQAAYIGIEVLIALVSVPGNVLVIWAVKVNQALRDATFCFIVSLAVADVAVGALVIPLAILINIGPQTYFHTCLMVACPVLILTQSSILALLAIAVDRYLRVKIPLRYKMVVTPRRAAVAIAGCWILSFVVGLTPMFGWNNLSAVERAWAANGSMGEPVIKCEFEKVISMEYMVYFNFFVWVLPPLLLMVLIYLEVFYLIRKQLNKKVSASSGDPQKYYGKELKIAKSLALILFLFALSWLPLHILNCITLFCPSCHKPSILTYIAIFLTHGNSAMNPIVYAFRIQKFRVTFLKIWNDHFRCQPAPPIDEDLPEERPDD

adenosine A3 receptor, sequence (P0DMS8 whole entry): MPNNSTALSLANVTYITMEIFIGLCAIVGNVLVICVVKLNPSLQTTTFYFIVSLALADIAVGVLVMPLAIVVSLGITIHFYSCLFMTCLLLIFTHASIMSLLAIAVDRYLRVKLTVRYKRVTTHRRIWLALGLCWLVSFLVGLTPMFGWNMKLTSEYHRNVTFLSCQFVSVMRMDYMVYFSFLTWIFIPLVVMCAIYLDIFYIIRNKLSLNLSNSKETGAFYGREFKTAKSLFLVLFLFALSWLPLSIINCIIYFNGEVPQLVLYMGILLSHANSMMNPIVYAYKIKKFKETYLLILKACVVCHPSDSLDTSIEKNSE
adenosine A2B receptor, sequence (P29275 whole entry): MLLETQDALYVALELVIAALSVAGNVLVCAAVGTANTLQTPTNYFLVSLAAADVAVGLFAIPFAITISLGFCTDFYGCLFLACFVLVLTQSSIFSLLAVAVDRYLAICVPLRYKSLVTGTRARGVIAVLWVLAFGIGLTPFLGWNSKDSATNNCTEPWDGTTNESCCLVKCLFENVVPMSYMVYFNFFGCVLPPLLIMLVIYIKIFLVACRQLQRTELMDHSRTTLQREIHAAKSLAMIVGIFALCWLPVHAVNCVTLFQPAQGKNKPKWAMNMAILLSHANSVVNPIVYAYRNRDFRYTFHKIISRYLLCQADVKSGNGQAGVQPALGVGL
adenosine A2A receptor, sequence (P29274 whole entry): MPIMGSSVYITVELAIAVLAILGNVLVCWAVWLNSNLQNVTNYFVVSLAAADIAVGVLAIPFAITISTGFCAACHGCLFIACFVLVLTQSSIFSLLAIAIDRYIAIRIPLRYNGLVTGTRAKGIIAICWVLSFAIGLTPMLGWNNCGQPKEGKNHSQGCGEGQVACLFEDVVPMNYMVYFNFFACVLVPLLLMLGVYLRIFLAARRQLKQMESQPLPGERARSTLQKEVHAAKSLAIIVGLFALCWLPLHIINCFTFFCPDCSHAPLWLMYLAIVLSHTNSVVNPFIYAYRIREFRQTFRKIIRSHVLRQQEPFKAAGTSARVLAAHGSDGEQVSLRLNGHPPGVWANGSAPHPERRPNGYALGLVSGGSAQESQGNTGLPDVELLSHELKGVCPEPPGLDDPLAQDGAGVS

A word on the IC50: it is the concentration that inhibits the measured activity by half. Consider `C[C@H](Nc1nc(C(=O)N2CC(NC(=O)C34CC5CC(CC(C5)C3)C4)C2)c2sccc2n1)c1cncc(F)c1` [Example Z631, (3S,5S,7S)—N-(1-(2-(((S)-1-(5-Fluoropyridin-3-yl)ethyl)amino)thieno[3,2-d]pyrimidine-4-carbonyl)azetidin-3-yl)adamantane-1-carboxamide], for which the IC50 in experiment [1] was 10 to 50 nM; in experiment [2], 10 to 50 nM; in experiment [3], below 10 nM; in experiment [4] it was above 500 nM. In experiment [2], the Ratio is given as 0.09.
Turning to `Cc1cc2nc(N[C@@H](C)c3cncc(F)c3)nc(C(=O)N3CC(NC(=O)c4ccc(C(F)(F)F)o4)C3)c2s1` [Example Z632, (S)—N-(1-(2-((1-(5-Fluoropyridin-3-yl)ethyl)amino)-6-methylthieno[3,2-d]pyrimidine-4-carbonyl)azetidin-3-yl)-5-(trifluoromethyl)furan-2-carboxamide], the IC50 in experiment [1] was 100 to 500 nM; in experiment [2], below 10 nM; in experiment [3], below 10 nM; in experiment [4] it was above 500 nM. For the same molecule, in experiment [2], the Ratio came out at 1.12.
For the molecule `C[C@H](Nc1nc(C(=O)N2CC(NC(=O)c3cccc(C(F)(F)F)c3)C2)c2sccc2n1)c1cncc(F)c1` [Example Z633, (S)—N-(1-(2-((1-(5-Fluoropyridin-3-yl)ethyl)amino)thieno[3,2-d]pyrimidine-4-carbonyl)azetidin-3-yl)-3-(trifluoromethyl)benzamide], the IC50 in experiment [1] was 100 to 500 nM; in experiment [2] it was below 10 nM; in experiment [3], 10 to 50 nM; in experiment [4] it was above 500 nM. In addition, in experiment [2], the Ratio was 1.62.
Take `C[C@H](Nc1nc(C(=O)N2CC(NC(=O)Nc3ccccc3)C2)c2sccc2n1)c1cncc(F)c1` [Example Z634, (S)-1-(1-(2-((1-(5-Fluoropyridin-3-yl)ethyl)amino)thieno[3,2-d]pyrimidine-4-carbonyl)azetidin-3-yl)-3-phenylurea]: the IC50 was 100 to 500 nM in experiment [1], below 10 nM in experiment [2], 10 to 50 nM in experiment [3] and above 500 nM in experiment [4]. Further, the Ratio in experiment [2] was 2.22.
For `COc1cccc(C(=O)NC2CN(C(=O)c3nc(N[C@@H](C)c4cncc(F)c4)nc4ccsc34)C2)c1` [Example Z635, (S)—N-(1-(2-((1-(5-Fluoropyridin-3-yl)ethyl)amino)thieno[3,2-d]pyrimidine-4-carbonyl)azetidin-3-yl)-3-methoxybenzamide], in that order: 100 to 500 nM, 10 to 50 nM, 10 to 50 nM, above 500 nM and 2.06.
Take `C[C@H](Nc1nc(C(=O)N2CC(NC(=O)C3(C#N)CC3)C2)c2sccc2n1)c1cncc(F)c1` [Example Z636, (S)-1-Cyano-N-(1-(2-((1-(5-fluoropyridin-3-yl)ethyl)amino)thieno[3,2-d]pyrimidine-4-carbonyl)azetidin-3-yl)cyclopropane-1-carboxamide]: the IC50 in experiment [1] is above 500 nM; in experiment [2], 10 to 50 nM; in experiment [3] it was 50 to 100 nM; in experiment [4], above 500 nM. The Ratio in experiment [2] is given as 3.72.
Turning to `C[C@H](Nc1nc(C(=O)N2CC(NC(=O)C34CCC(CC3)CC4)C2)c2sccc2n1)c1cncc(F)c1` [Example Z637, (S)—N-(1-(2-((1-(5-Fluoropyridin-3-yl)ethyl)amino)thieno[3,2-d]pyrimidine-4-carbonyl)azetidin-3-yl)bicyclo[2.2.2]octane-1-carboxamide], the IC50 was 10 to 50 nM in experiment [1], 10 to 50 nM in experiment [2], below 10 nM in experiment [3] and above 500 nM in experiment [4]. Also, the Ratio in experiment [2] was 0.13.
As to `C[C@H](Nc1nc(C(=O)N2CC(NC(=O)C3CC(C)(C)C3)C2)c2sccc2n1)c1cncc(F)c1` [Example Z638, (S)—N-(1-(2-((1-(5-Fluoropyridin-3-yl)ethyl)amino)thieno[3,2-d]pyrimidine-4-carbonyl)azetidin-3-yl)-3,3-dimethylcyclobutane-1-carboxamide], the IC50 was 50 to 100 nM in experiment [1], 10 to 50 nM in experiment [2], below 10 nM in experiment [3] and above 500 nM in experiment [4]. Also, the Ratio in experiment [2] amounted to 0.52.
The like results for `C[C@H](Nc1nc(C(=O)N2CC(NC(=O)[C@H]3CC[C@H](C)CC3)C2)c2sccc2n1)c1cncc(F)c1` [Example Z639, Trans-N-(1-(2-(((S)-1-(5-fluoropyridin-3-yl)ethyl)amino)thieno[3,2-d]pyrimidine-4-carbonyl)azetidin-3-yl)-4-methylcyclohexane-1-carboxamide] were, in that order, 100 to 500 nM, 10 to 50 nM, 10 to 50 nM, above 500 nM and 0.98.
Regarding `C[C@H](Nc1nc(C(=O)N2CC(NC(=O)C3CCC(F)(F)CC3)C2)c2sccc2n1)c1cncc(F)c1` [Example Z640, (S)-4,4-Difluoro-N-(1-(2-((1-(5-fluoropyridin-3-yl)ethyl)amino)thieno[3,2-d]pyrimidine-4-carbonyl)azetidin-3-yl)cyclohexane-1-carboxamide], the concentration for half-maximal inhibition (IC50) in experiment [1] is 100 to 500 nM; in experiment [2], 10 to 50 nM; in experiment [3], 10 to 50 nM; in experiment [4] it was above 500 nM. In experiment [2], the Ratio is reported as 1.24.
`C[C@H](Nc1nc(C(=O)N2CC(NC(=O)C3(C)CC3)C2)c2sccc2n1)c1cncc(Cl)c1` [Example Z641, (S)—N-(1-(2-((1-(5-Chloropyridin-3-yl)ethyl)amino)thieno[3,2-d]pyrimidine-4-carbonyl)azetidin-3-yl)-1-methylcyclopropane-1-carboxamide]: the 50% inhibitory concentration (IC50) was 100 to 500 nM in experiment [1], below 10 nM in experiment [2], 10 to 50 nM in experiment [3] and above 500 nM in experiment [4]. Also, in experiment [2], the Ratio is 1.81.
On to `C[C@H](Nc1nc(C(=O)N2CC(NC(=O)C(C)(C)C)C2)c2sccc2n1)c1cncc(Cl)c1` [Example Z642, (S)—N-(1-(2-((1-(5-Chloropyridin-3-yl)ethyl)amino)thieno[3,2-d]pyrimidine-4-carbonyl)azetidin-3-yl)pivalamide], for which the IC50 is 100 to 500 nM in experiment [1], 10 to 50 nM in experiment [2], below 10 nM in experiment [3] and above 500 nM in experiment [4]. Moreover, the Ratio in experiment [2] was 0.57.
In the case of `C[C@H](Nc1nc(C(=O)N2CC(NC(=O)C3(C(F)(F)F)CCC3)C2)c2sccc2n1)c1cncc(F)c1` [Example Z643, (S)—N-(1-(2-((1-(5-Fluoropyridin-3-yl)ethyl)amino)thieno[3,2-d]pyrimidine-4-carbonyl)azetidin-3-yl)-1-(trifluoromethyl)cyclobutane-1-carboxamide], the IC50 was 100 to 500 nM in experiment [1], 10 to 50 nM in experiment [2], below 10 nM in experiment [3] and above 500 nM in experiment [4]. For the same molecule, the Ratio in experiment [2] is reported as 0.19.
As to `C[C@H](Nc1nc(C(=O)N2CC(NC(=O)C3(C)CCC3)C2)c2sccc2n1)c1cncc(Cl)c1` [Example Z644, (S)—N-(1-(2-((1-(5-Chloropyridin-3-yl)ethyl)amino)thieno[3,2-d]pyrimidine-4-carbonyl)azetidin-3-yl)-1-methylcyclobutane-1-carboxamide], the IC50 was 100 to 500 nM in experiment [1], 10 to 50 nM in experiment [2], below 10 nM in experiment [3] and above 500 nM in experiment [4]. The Ratio in experiment [2] is given as 0.59.
For `C[C@H](Nc1nc(C(=O)N2CC(NC(=O)c3ccc(-c4ccccc4)cc3)C2)c2sccc2n1)c1cncc(F)c1` [Example Z645, (S)—N-(1-(2-((1-(5-Fluoropyridin-3-yl)ethyl)amino)thieno[3,2-d]pyrimidine-4-carbonyl)azetidin-3-yl)-[1,1′-biphenyl]-4-carboxamide], in that order: 50 to 100 nM, 50 to 100 nM, 10 to 50 nM, above 500 nM and 0.48.
With `Cc1cc(C)cc(C(=O)NC2CN(C(=O)c3nc(N[C@@H](C)c4cncc(F)c4)nc4ccsc34)C2)c1` [Example Z646, (S)—N-(1-(2-((1-(5-Fluoropyridin-3-yl)ethyl)amino)thieno[3,2-d]pyrimidine-4-carbonyl)azetidin-3-yl)-3,5-dimethylbenzamide], the IC50 in experiment [1] is 100 to 500 nM; in experiment [2], 10 to 50 nM; in experiment [3], 10 to 50 nM; in experiment [4] it was above 500 nM. In experiment [2], the Ratio came out at 0.65.
As to `Cc1cc(C(=O)NC2CN(C(=O)c3nc(N[C@@H](C)c4cncc(F)c4)nc4ccsc34)C2)c(C)o1` [Example Z647, (S)—N-(1-(2-((1-(5-Fluoropyridin-3-yl)ethyl)amino)thieno[3,2-d]pyrimidine-4-carbonyl)azetidin-3-yl)-2,5-dimethylfuran-3-carboxamide], the 50% inhibitory concentration (IC50) in experiment [1] is 100 to 500 nM; in experiment [2], 10 to 50 nM; in experiment [3] it was 10 to 50 nM; in experiment [4], above 500 nM. In addition, the Ratio in experiment [2] is 1.16.
For “(S)—N-(1-(2-((1-(5-Fluoropyridin-3-yl)ethyl)amino)-7-methylthieno[3,2-d]pyrimidine-4-carbonyl)azetidin-3-yl)pivalamide [Example Z624]”, the half-maximal inhibitory concentration (IC50) in experiment [1] is 100 to 500 nM; in experiment [2] it was 10 to 50 nM; in experiment [3] it was below 10 nM; in experiment [4], above 500 nM. Further, the Ratio in experiment [2] is listed as 0.18.
On to “N-(tert-Butoxy)-1-(2-(((S)-1-(5-fluoropyridin-3-yl)ethyl)amino)-6-methylthieno[3,2-d]pyrimidine-4-carbonyl)pyrrolidine-3-carboxamide [Example Z602]”, for which the IC50 in experiment [1] was 100 to 500 nM; in experiment [2], 10 to 50 nM; in experiment [3] it was below 10 nM; in experiment [4] it was above 500 nM. Moreover, the Ratio in experiment [2] stood at 0.49.
